In patent US6953779B2, “Melanocortin receptor antagonists and modulations of melanocortin receptor activity” (The Regents of the University of California, priority 1998, dated 2005):
Square brackets hold non-standard residues; d marks the D form. Peptide text beside a SMILES is read from it. * marks the point of attachment. d2Nal = N[C@H](Cc1ccc2ccccc2c1)C(=O)O; Benzoyl(3-OMe) = COc1cccc(C(=O)*)c1; Benzoyl(4-OMe) = COc1ccc(C(=O)*)cc1; d2Thi = N[C@H](Cc1cccs1)C(=O)O

Tested on: heat-induced edema in the anesthetized rat's paw
Assay: Suppression of heat-induced edema in the anesthetized rat's paw (anti-inflammatory)
Format: in vivo
Conditions: for Anti-Inflammatory ED50: suppression of heat-induced edema in the anesthetized rat's paw; for anti-edema activity: in words

| SMILES | Anti-Inflammatory ED50 (i.v.) | Anti-Inflammatory ED50 (i) [µmol/kg] | anti-edema activity |
| --- | --- | --- | --- |
| CC[C@H](C)[C@H](NC(=O)[C@@H](Cc1ccc2ccccc2c1)NC(=O)[C@H](CC(C)C)NC(=O)[C@H](CC(C)C)NC(=O)[C@H](CCCCN)NC(=O)[C@H](CCCNC(=N)N)NC(=O)c1ccc(OC)cc1)C(=O)N[C@H](CC(C)C)C(N)=O [S-114, p-anisoyl-Arg-Lys-Leu-Leu-D-Nal-Ile-D-Leu-NH2] ({Benzoyl(4-OMe)}-RKLL[d2Nal]I[dL]-NH2) | 0.38 (0.16-0.91) mg/kg |  |  |
| COc1ccc(C(=O)N[C@@H](CCCNC(=N)N)C(=O)N[C@@H](CCCCN)C(=O)N[C@@H](CC(C)C)C(=O)N[C@@H](CC(C)C)C(=O)N[C@H](Cc2cccs2)C(=O)N[C@@H](C)C(=O)N[C@H](CC(C)C)C(N)=O)cc1 [S-163, p-anisoyl-Arg-Lys-Leu-Leu-D-Thi-Ala-D-Leu-NH2] ({Benzoyl(4-OMe)}-RKLL[d2Thi]A[dL]-NH2) | 0.067 (0.030-0.15) mg/kg |  |  |
| CC[C@H](C)[C@H](NC(=O)[C@H](CCCNC(=N)N)NC(=O)[C@H](CCCNC(=N)N)NC(=O)c1cccc(OC)c1)C(=O)N[C@@H](C)C(=O)N1CCC[C@H]1C(=O)N[C@@H](CCCCN)C(=O)N[C@@H](CC(C)C)C(N)=O [SQW-10, m-anisoyl-Arg-Arg-Ile-Ala-Pro-Lys-Leu-amide] ({Benzoyl(3-OMe)}-RRIAPKL-NH2) |  | 1.02 |  |
| CC[C@H](C)[C@H](NC(=O)[C@@H](Cc1cccs1)NC(=O)[C@H](CC(C)C)NC(=O)[C@H](C)NC(=O)[C@H](CCCCN)NC(=O)[C@H](CCCNC(=N)N)NC(=O)c1ccc(OC)cc1)C(=O)N[C@H](CC(C)C)C(N)=O [S-160, p-anisoyl-Arg-Lys-Ala-Leu-D-Thi-Ile-D-Leu-NH2] ({Benzoyl(4-OMe)}-RKAL[d2Thi]I[dL]-NH2) | 0.18 (0.07-0.49) mg/kg |  |  |
| CC[C@H](C)[C@H](NC(=O)[C@H](CCCNC(=N)N)NC(=O)[C@H](CCCNC(=N)N)NC(=O)c1cccc(OC)c1)C(=O)N[C@@H](CCCNC(=N)N)C(=O)N1CCC[C@H]1C(=O)N[C@@H](CCCCN)C(=O)N[C@@H](C)C(N)=O [SQW-13, m-anisoyl-Arg-Arg-Ile-Arg-Pro-Lys-Ala-amide] ({Benzoyl(3-OMe)}-RRIRPKA-NH2) |  | 2.39 |  |
| CC[C@H](C)[C@H](NC(=O)[C@@H](Cc1c[nH]c2ccccc12)NC(=O)[C@H](CC(C)C)NC(=O)[C@H](CC(C)C)NC(=O)[C@H](CCCCN)NC(=O)[C@H](CCCNC(=N)N)NC(=O)c1ccc(OC)cc1)C(=O)N[C@H](CC(C)C)C(N)=O [S-117, p-anisoyl-Arg-Lys-Leu-Leu-D-Trp-Ile-D-Leu-NH2] ({Benzoyl(4-OMe)}-RKLL[dW]I[dL]-NH2) | 0.16 (0.050-0.40) mg/kg |  |  |
| CC[C@H](C)[C@H](NC(=O)[C@H](CCCNC(=N)N)NC(=O)[C@@H](CCCNC(=N)N)NC(=O)c1ccc(OC)cc1)C(=O)N[C@H](CCCNC(=N)N)C(=O)N1CCC[C@H]1C(=O)N[C@H](CCCCN)C(=O)N[C@H](CC(C)C)C(N)=O [SQW-5, p-anisoyl-[D-Arg^6,9, D-Lys^11, D-Leu^12] dynorphin A(6-12)-NH2] ({Benzoyl(4-OMe)}-[dR]RI[dR]P[dK][dL]-NH2) |  | 0.060 | active as anti-edema agents |
| CC[C@H](C)[C@H](NC(=O)[C@H](C)NC(=O)[C@H](CCCNC(=N)N)NC(=O)c1cccc(OC)c1)C(=O)N[C@@H](CCCNC(=N)N)C(=O)N1CCC[C@H]1C(=O)N[C@@H](CCCCN)C(=O)N[C@@H](CC(C)C)C(N)=O [SQW-8, m-anisoyl-Arg-Ala-Ile-Arg-Pro-Lys-Leu-amide] ({Benzoyl(3-OMe)}-RAIRPKL-NH2) |  | >1 |  |
| CC[C@H](C)[C@H](NC(=O)[C@@H](Cc1cccs1)NC(=O)[C@H](C)NC(=O)[C@H](CC(C)C)NC(=O)[C@H](CCCCN)NC(=O)[C@H](CCCNC(=N)N)NC(=O)c1ccc(OC)cc1)C(=O)N[C@H](CC(C)C)C(N)=O [S-165, p-anisoyl-Arg-Lys-Leu-Ala-D-Thi-Ile-D-Leu-NH2] ({Benzoyl(4-OMe)}-RKLA[d2Thi]I[dL]-NH2) | 0.046 (0.015-0.14) mg/kg |  |  |
| CC[C@H](C)[C@H](NC(=O)[C@@H](Cc1cccs1)NC(=O)[C@H](CC(C)C)NC(=O)[C@H](CC(C)C)NC(=O)[C@H](CCCCN)NC(=O)[C@H](CCCNC(=N)N)NC(=O)c1ccc(OC)cc1)C(=O)N[C@H](C)C(N)=O [S-162, p-anisoyl-Arg-Lys-Leu-Leu-D-Thi-Ile-D-Ala-NH2] ({Benzoyl(4-OMe)}-RKLL[d2Thi]I[dA]-NH2) | 0.24 (0.11-0.50) mg/kg |  |  |
| CC[C@H](C)[C@H](NC(=O)[C@@H](Cc1cccs1)NC(=O)[C@H](CC(C)C)NC(=O)[C@H](CC(C)C)NC(=O)[C@H](C)NC(=O)[C@H](CCCNC(=N)N)NC(=O)c1ccc(OC)cc1)C(=O)N[C@H](CC(C)C)C(N)=O [S-166, p-anisoyl-Arg-Ala-Leu-Leu-D-Thi-Ile-D-Leu-NH2] ({Benzoyl(4-OMe)}-RALL[d2Thi]I[dL]-NH2) | >2 mg/kg |  |  |
| CC[C@H](C)[C@H](NC(=O)[C@@H](Cc1ccc(O)cc1)NC(=O)[C@H](CC(C)C)NC(=O)[C@H](CC(C)C)NC(=O)[C@H](CCCCN)NC(=O)[C@H](CCCNC(=N)N)NC(=O)c1ccc(OC)cc1)C(=O)N[C@H](CC(C)C)C(N)=O [S-116, p-anisoyl-Arg-Lys-Leu-Leu-D-Tyr-Ile-D-Leu-NH2] ({Benzoyl(4-OMe)}-RKLL[dY]I[dL]-NH2) | 0.080 (0.03-0.20) mg/kg |  |  |
| CC[C@H](C)[C@H](NC(=O)[C@@H](Cc1cccs1)NC(=O)[C@H](CC(C)C)NC(=O)[C@H](CC(C)C)NC(=O)[C@H](CCCCN)NC(=O)[C@H](CCCNC(=N)N)NC(=O)c1ccc(OC)cc1)C(=O)N[C@H](CC(C)C)C(N)=O [mystixin-7, p-anisoyl-Arg-Lys-Leu-Leu-D-Thi-Ile-D-Leu-NH2] ({Benzoyl(4-OMe)}-RKLL[d2Thi]I[dL]-NH2) | 0.02 (0.014-0.059) mg/kg |  |  |
| CC[C@H](C)[C@H](NC(=O)[C@H](CCCNC(=N)N)NC(=O)[C@H](CCCNC(=N)N)NC(=O)c1cccc(OC)c1)C(=O)N[C@@H](CCCNC(=N)N)C(=O)N1CCC[C@H]1C(=O)N[C@@H](CCCCN)C(=O)N[C@@H](CC(C)C)C(N)=O [SQW-6, m-anisoyl-Arg-Arg-Ile-Arg-Pro-Lys-Leu-amide] ({Benzoyl(3-OMe)}-RRIRPKL-NH2) |  | 0.51 | active as anti-edema agents |
| CC[C@H](C)[C@H](NC(=O)[C@H](CCCNC(=N)N)NC(=O)[C@H](C)NC(=O)c1cccc(OC)c1)C(=O)N[C@@H](CCCNC(=N)N)C(=O)N1CCC[C@H]1C(=O)N[C@@H](CCCCN)C(=O)N[C@@H](CC(C)C)C(N)=O [SQW-7, m-anisoyl-Ala-Arg-Ile-Arg-Pro-Lys-Leu-amide] ({Benzoyl(3-OMe)}-ARIRPKL-NH2) |  | >1 |  |
| CC[C@H](C)[C@H](NC(=O)[C@@H](CCCNC(=N)N)NC(=O)[C@H](CCCNC(=N)N)NC(=O)c1ccc(OC)cc1)C(=O)N[C@H](CCCNC(=N)N)C(=O)N1CCC[C@H]1C(=O)N[C@H](CCCCN)C(=O)N[C@H](CC(C)C)C(N)=O [SQW-3, p-anisoyl-Arg-D-Arg-Ile-D-Arg-Pro-D-Lys-D-Leu-amide] ({Benzoyl(4-OMe)}-R[dR]I[dR]P[dK][dL]-NH2) |  | 0.095 |  |
